The source of these data is patent publication US20030138508A1 (priority 2001, published 2003).

Data set [1] has as its system Male ICR mice. The conditions noted are these: mouse, in vivo, iv.
Data set [2] is classed as physicochemical.
For data set [3], the system named is Male ICR mice. The conditions noted are these: mouse, in vivo, iv. This is another data set of the same source.
For data set [4], the system named is Male ICR mice. The conditions noted are these: mouse, in vivo, iv, 0.7 mg/kg.

In the data set on Male ICR mice [1], `CCCCCc1cc(O)c2c(c1)OC(C)(C)[C@@H]1CCC(C)=C[C@@H]21` [THC, Δ^9-Tetrahydrocannabinol] had an inactive dose of 0.7 mg/kg. In data set [2], this compound showed a recovery from aerosol of about 87.5%. Moreover, the “LD50 [95% CL's]” value in the data set on Male ICR mice [3] was 75.4 [66.5-85.5] mg/kg. Further, the TI with Male ICR mice [4] amounted to 47.
